Here are results for 30 molecules from patent publication US9802899B2, “Heterocyclic compounds as pesticides” (BAYER CROPSCIENCE AG, priority 2012, dated 2017).

A short description of one data set: Determination of the log P values by HPLC (formic acid method). The class given is physicochemical. To be noted: reversed-phase HPLC column (C 18), reversed-phase column (C 18), acidic range (pH 3.4), 55° C. The procedure: 1) Description of Method for Determination of the Log P Values (Formic Acid Method)
Eluents for determination in the acidic range (pH 3.4):
Eluent A: acetonitrile+1 ml of formic acid/liter. Eluent B: water+0.9 ml of formic acid/liter.
The lambda max values were determined in the maxima of the chromatographic signals using the UV spectra from 200 nm to 400 nm.
What is called chromatographic logP is a lipophilicity value derived from retention on a column. Lower therefore signals a more hydrophilic compound. The molecule `N#Cc1cncnc1-n1ccc(N)n1` [4-(3-Amino-1H-pyrazol-1-yl)pyrimidine-5-carbonitrile] displayed a chromatographic logP of 0.59.

The same data set, now with this note: reversed-phase column (C 18), acidic range (pH 3.4), 55° C.
Usually log P stands for the decadic logarithm of the partition coefficient of the neutral form, usually between octanol and water. Read a high log P as higher lipophilicity. With `O=C(Nc1cnn(-c2c(F)cccc2F)n1)c1ncccc1C(F)(F)F` [Compound I-2-80], the “log P” value came to 2.78. On to `O=C(Nc1ccn(-c2c(F)cccc2F)n1)c1snc(Cl)c1Cl` [Compound I-1-115], for which the “log P” value was found to be 3.33. On to `O=C(Nc1ccn(-c2c(F)cccc2F)n1)c1cccnc1Cl` [Compound I-1-95], for which the “log P” value worked out at 1.96. In the case of `COc1ccccc1-n1ccc(NC(=O)c2ccccc2I)n1` [Compound I-1-411], the “log P” value is 2.83. Take `O=C(Nc1nn(-c2ncc(F)cc2F)c2ccccc12)c1ccccc1Br` [Compound I-5-3]: the “log P” value is 3.09. For `O=C(Nc1ccn(-c2c(F)cccc2F)n1)c1cccnc1F` [Compound I-1-279], the “log P” value stood at 2.00. In the case of `O=C(Nc1ccn(-c2ncc(Cl)cc2Cl)n1)c1ccc(F)cc1C(F)(F)F` [Compound I-1-436], the “log P” value came to 2.61. Take `CC(=O)c1ccccc1C(=O)Nc1ccn(-c2c(F)cccc2F)n1` [Compound I-1-270]: the lipophilicity (log P) was determined as 2.38. `CS(=O)(=O)c1ccccc1-n1ccc(NC(=O)c2ccccc2Br)n1` [Compound I-1-182]: the lipophilicity (log P) was found to be 2.00.

Turning to `Cc1cn(-c2ccccc2Cl)nc1NC(=O)c1ccccc1Cl` [Compound I-1-360], the “log P” value came to 2.80. As to `O=C(Nc1nn(-c2ncccc2Cl)nc1Cl)c1ccccc1I` [Compound I-2-60], the “log P” value turned out to be 2.57.

With `O=C(Nc1nn(-c2ncc(C(F)(F)F)cc2Cl)c2ccccc12)c1ccccc1Br` [Compound I-5-5], the “log P” value turned out to be 3.98. Take `Nc1ccn(-c2ncc(F)cc2F)n1` [1-(3,5-Difluoropyridin-2-yl)-1H-pyrazole-3-amine]: the chromatographic logP is 0.81. Consider `N#Cc1cc(F)ccc1-n1ccc(NC(=O)c2ccsc2I)n1` [Compound I-1-633], for which the “log P” value was determined as 2.73.

In the case of `O=C(Nc1nn(-c2ncccc2Cl)nc1Cl)c1ccccc1C(F)(F)F` [Compound I-2-11], the “log P” value turned out to be 2.60. As for `Cn1nc(C(C)(C)C)c(Cl)c1C(=O)Nc1ccn(-c2ncc(F)cc2F)n1` [Compound I-1-513], the lipophilicity (log P) is 3.89. With `O=C(Nc1ccn(-c2c(F)cccc2F)n1)c1nccnc1Cl` [Compound I-1-100], the “log P” value was 2.15.

On to `O=C(Nc1ccn(-c2ncccc2F)n1)c1cccnc1OC(F)(F)F` [Compound I-1-577], for which the “log P” value is listed as 2.33. As to `C#CCN(C(=O)c1ccccc1C(F)(F)F)c1ccn(-c2ncc(F)cc2F)n1` [Compound I-1-470], the log partition coefficient (log P) is 3.05. Take `Cn1cncc1C(=O)Nc1ccn(-c2c(F)cccc2F)n1` [Compound I-1-644]: the “log P” value is given as 0.99. Turning to `O=C(Nc1ccn(-c2c(Cl)cccc2Cl)n1)c1ccccc1C(F)(F)F` [Compound I-1-120], the “log P” value is 3.05. On to `O=C(Nc1ccn(-c2cncc(F)n2)n1)c1ccccc1I` [Compound I-1-405], for which the “log P” value was 3.28. Same read-out and setting: the result for `Cn1nc(C(C)(C)C)c([N+](=O)[O-])c1C(=O)Nc1ccn(-c2ncc(F)cc2F)n1` [Compound I-1-512] reads 3.11. For `Cc1cn(-c2ccccc2Cl)nc1NC(=O)c1c(F)cccc1F` [Compound I-1-352], the “log P” value is reported as 2.70.

Turning to `Cc1nn(C(F)F)c(C(=O)Nc2ccn(-c3c(F)cccc3F)n2)c1Cl` [Compound I-1-306], the “log P” value worked out at 3.11. As for `Cc1oncc1C(=O)Nc1ccn(-c2ncc(F)cc2F)n1` [Compound I-1-547], the “log P” value is recorded as 1.37. For `Cn1cc([N+](=O)[O-])c(C(=O)Nc2ccn(-c3c(F)cccc3F)n2)n1` [Compound I-1-241], the “log P” value was found to be 1.90. As to `O=C(Nc1cnn(-c2ncc(F)cc2F)n1)c1ncccc1C(F)(F)F` [Compound I-2-84], the “log P” value was found to be 2.28. For the molecule `O=C(Nc1cnn(-c2c(F)cccc2F)n1)c1cccnc1Br` [Compound I-2-37], the “log P” value is reported as 2.09.
